Common to all, as to assay type: functional, cell-based
Experiment [1] deals with 786-0. In words: cells. The note with it: Homo sapiens.
Description: SANGER: Inhibition of human 786-0 cell growth in a cell viability assay.
The test system of experiment [2] is NCI-H810. In words: cells. The note with it: Homo sapiens.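 Also: IC50 reflects inhibition of cancer cell line growth, read out with a cell viability assay.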
Description: SANGER: Inhibition of human NCI-H810 cell growth in a cell viability assay.
Experiment [3] relates to IGR-1. In words: cells. The note with it: Homo sapiens.
Description: SANGER: Inhibition of human IGR-1 cell growth in a cell viability assay.
For experiment [4], the system named is NCI-H1581. Briefly: cells. The note with it: Homo sapiens.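 Also: cell growth inhibition read out by a viability assay.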
Description: SANGER: Inhibition of human NCI-H1581 cell growth in a cell viability assay.
For experiment [5], the system named is CHP-212. Briefly: cells. The note with it: Homo sapiens.
Description: SANGER: Inhibition of human CHP-212 cell growth in a cell viability assay.
The subject of experiment [6] is A-427. Briefly: cells. The note with it: Homo sapiens.
Description: SANGER: Inhibition of human A427 cell growth in a cell viability assay.
The subject of experiment [7] is A2780. Briefly: cells. The note with it: Homo sapiens.
Description: SANGER: Inhibition of human A2780 cell growth in a cell viability assay.
Experiment [8] deals with NCI-H446. Briefly: cells. The note with it: Homo sapiens.
Description: SANGER: Inhibition of human NCI-H446 cell growth in a cell viability assay.
For experiment [9], the system named is LB1047-RCC. Briefly: cells. The note with it: Homo sapiens.
Description: SANGER: Inhibition of human LB1047-RCC cell growth in a cell viability assay.
Experiment [10] has as its system MEG-01. Briefly: cells. The note with it: Homo sapiens.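 Also: growth inhibition of MEG-01 cells, read out by a cell viability assay.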
Description: SANGER: Inhibition of human MEG-01 cell growth in a cell viability assay.
Experiment [11] relates to L-363. Briefly: cells. The note with it: Homo sapiens.
Description: SANGER: Inhibition of human L-363 cell growth in a cell viability assay.
The subject of experiment [12] is AGS. In words: cells. The note with it: Homo sapiens.
Description: SANGER: Inhibition of human AGS cell growth in a cell viability assay.
The test system of experiment [13] is MHH-NB-11. In words: cells. The note with it: Homo sapiens.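 Also: growth inhibition of human MHH-NB-11 cells, read out by a cell viability assay.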
Description: SANGER: Inhibition of human MHH-NB-11 cell growth in a cell viability assay.
Experiment [14] relates to D-566MG. Briefly: cells. The note with it: Homo sapiens.
In experiment [15] the test system is DMS-114. Briefly: cells. The note with it: Homo sapiens.
The test system of experiment [16] is ES7. Briefly: cells. The note with it: Homo sapiens.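 Also: growth inhibition of cultured human ES7 cells, read out as cell viability.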
Description: SANGER: Inhibition of human ES7 cell growth in a cell viability assay.
Experiment [17] deals with EM-2. In words: cells. The note with it: Homo sapiens.
Description: SANGER: Inhibition of human EM-2 cell growth in a cell viability assay.
Experiment [18] relates to D-392MG. Briefly: cells. The note with it: Homo sapiens.
For experiment [19], the system named is K5. In words: cells. The note with it: Homo sapiens.
Description: SANGER: Inhibition of human K5 cell growth in a cell viability assay.
The test system of experiment [20] is A253 cell line. Briefly: cells. The note with it: Homo sapiens.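 Also: growth inhibition of A253 cells, read out with a cell viability assay.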
Description: SANGER: Inhibition of human A253 cell growth in a cell viability assay.
The subject of experiment [21] is BC1 cell line. In words: SANGER: Inhibition of human BC-1 cell growth in a cell viability assay.
The subject of experiment [22] is LXF-289 cell line. In words: cells. The note with it: Homo sapiens.
Description: SANGER: Inhibition of human LXF-289 cell growth in a cell viability assay.
The test system of experiment [23] is KU812 cell line. In words: cells. The note with it: Homo sapiens.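 Also: growth inhibition of KU812 cells, read out with a cell viability assay.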
Description: SANGER: Inhibition of human KU812 cell growth in a cell viability assay.
Experiment [24] concerns DMS-273. In words: cells. The note with it: Homo sapiens.
Description: SANGER: Inhibition of human DMS-273 cell growth in a cell viability assay.
Experiment [25] deals with EW-18. In words: cells. The note with it: Homo sapiens.
Description: SANGER: Inhibition of human EW-18 cell growth in a cell viability assay.
Experiment [26] concerns SW780. In words: cells. The note with it: Homo sapiens.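 Also: growth inhibition of the cells, read out with a cell viability assay.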
Description: SANGER: Inhibition of human SW780 cell growth in a cell viability assay.
For experiment [27], the system named is HSC-2. Briefly: cells. The note with it: Homo sapiens.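 Also: growth inhibition of human HSC-2 cells, read out by a cell viability assay.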
Description: SANGER: Inhibition of human HSC-2 cell growth in a cell viability assay.
Experiment [28] has as its system OCUB-M. Briefly: cells. The note with it: Homo sapiens.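 Also: growth inhibition of the cancer cell line, read out through a cell viability assay.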
Description: SANGER: Inhibition of human OCUB-M cell growth in a cell viability assay.
Experiment [29] has as its system VMRC-RCZ. In words: cells. The note with it: Homo sapiens.
Description: SANGER: Inhibition of human VMRC-RCZ cell growth in a cell viability assay.
In experiment [30] the test system is CAL-62. In words: cells. The note with it: Homo sapiens.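 Also: growth inhibition of CAL-62 cells, read out with a cell viability assay.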
Description: SANGER: Inhibition of human CAL-62 cell growth in a cell viability assay.
In experiment [31] the test system is JVM-3. Briefly: cells. The note with it: Homo sapiens.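 Also: growth inhibition of human JVM-3 cells, read out with a cell viability assay.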
Description: SANGER: Inhibition of human JVM-3 cell growth in a cell viability assay.
Experiment [32] deals with IST-SL1. In words: cells. The note with it: Homo sapiens.
Description: SANGER: Inhibition of human IST-SL1 cell growth in a cell viability assay.
Experiment [33] has as its system NCI-H520. Briefly: cells. The note with it: Homo sapiens.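 Also: growth inhibition of NCI-H520 cells, measured by a cell viability assay.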
Description: SANGER: Inhibition of human NCI-H520 cell growth in a cell viability assay.
Experiment [34] deals with 8505C. Briefly: cells. The note with it: Homo sapiens.
Description: SANGER: Inhibition of human 8505C cell growth in a cell viability assay.
Experiment [35] relates to COLO-824. In words: cells. The note with it: Homo sapiens.
Description: SANGER: Inhibition of human COLO-824 cell growth in a cell viability assay.
The test system of experiment [36] is 5637. Briefly: cells. The note with it: Homo sapiens.
Description: SANGER: Inhibition of human 5637 cell growth in a cell viability assay.
In experiment [37] the test system is IA-LM. Briefly: cells. The note with it: Homo sapiens.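 Also: cell viability assay measuring growth inhibition of human IA-LM cells.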
Description: SANGER: Inhibition of human IA-LM cell growth in a cell viability assay.
Experiment [38] has as its system LCLC-97TM1. Briefly: cells. The note with it: Homo sapiens.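 Also: cell viability assay measuring growth inhibition of human LCLC-97TM1 cells.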
Description: SANGER: Inhibition of human LCLC-97TM1 cell growth in a cell viability assay.
Experiment [39] concerns SW948. Briefly: cells. The note with it: Homo sapiens.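 Also: growth inhibition of SW948 cells, read out with a cell viability assay.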
Description: SANGER: Inhibition of human SW948 cell growth in a cell viability assay.
For experiment [40], the system named is HCC1569. In words: cells. The note with it: Homo sapiens.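 Also: growth inhibition of human HCC1569 cells, read out with a cell viability assay.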
Description: SANGER: Inhibition of human HCC1569 cell growth in a cell viability assay.
Experiment [41] has as its system SK-MEL-2. Briefly: cells. The note with it: Homo sapiens.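 Also: growth inhibition of human SK-MEL-2 cells measured with a cell viability assay.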
Description: SANGER: Inhibition of human SK-MEL-2 cell growth in a cell viability assay.
The subject of experiment [42] is MPP-89. Briefly: cells. The note with it: Homo sapiens.
Description: SANGER: Inhibition of human MPP-89 cell growth in a cell viability assay.
Experiment [43] relates to OC-314. In words: cells. The note with it: Homo sapiens.
Description: SANGER: Inhibition of human OC-314 cell growth in a cell viability assay.
The subject of experiment [44] is LU-139. Briefly: cells. The note with it: Homo sapiens.
Description: SANGER: Inhibition of human LU-139 cell growth in a cell viability assay.
The subject of experiment [45] is TE-1. Briefly: cells. The note with it: Homo sapiens.
Description: SANGER: Inhibition of human TE-1 cell growth in a cell viability assay.
Experiment [46] deals with KARPAS-45. In words: cells. The note with it: Homo sapiens.
Description: SANGER: Inhibition of human KARPAS-45 cell growth in a cell viability assay.
For experiment [47], the system named is HN. Briefly: cells. The note with it: Homo sapiens.
Description: SANGER: Inhibition of human HN cell growth in a cell viability assay.
Experiment [48] concerns LCLC-103H cell line. Briefly: cells. The note with it: Homo sapiens.
Description: SANGER: Inhibition of human LCLC-103H cell growth in a cell viability assay.
Experiment [49] deals with UACC-893. In words: cells. The note with it: Homo sapiens.
Description: SANGER: Inhibition of human UACC-893 cell growth in a cell viability assay.
Experiment [50] relates to HT55. Briefly: cells. The note with it: Homo sapiens.
Description: SANGER: Inhibition of human HT55 cell growth in a cell viability assay.
The test system of experiment [51] is MN-60. In words: cells. The note with it: Homo sapiens.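 Also: growth inhibition of the MN-60 cell line, determined with a cell viability assay.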
Description: SANGER: Inhibition of human MN-60 cell growth in a cell viability assay.
Experiment [52] relates to PSN1. Briefly: cells. The note with it: Homo sapiens.
Description: SANGER: Inhibition of human PSN1 cell growth in a cell viability assay.
The subject of experiment [53] is COLO-320-HSR. Briefly: cells. The note with it: Homo sapiens.
Description: SANGER: Inhibition of human COLO-320-HSR cell growth in a cell viability assay.
In experiment [54] the test system is BB49-HNC. Briefly: cells. The note with it: Homo sapiens.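 Also: cell viability assay read-out, reported as inhibition of BB49-HNC cell growth.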
Description: SANGER: Inhibition of human BB49-HNC cell growth in a cell viability assay.
Experiment [55] deals with OE33. In words: cells. The note with it: Homo sapiens.
Description: SANGER: Inhibition of human OE33 cell growth in a cell viability assay.
Experiment [56] deals with A3-KAW. In words: cells. The note with it: Homo sapiens.
Description: SANGER: Inhibition of human A3-KAW cell growth in a cell viability assay.
Experiment [57] relates to CAL-51. Briefly: cells. The note with it: Homo sapiens.
Description: SANGER: Inhibition of human CAL-51 cell growth in a cell viability assay.
For experiment [58], the system named is NCI-H1693. Briefly: cells. The note with it: Homo sapiens.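 Also: growth inhibition of the human cell line, read out with a cell viability assay.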
Description: SANGER: Inhibition of human NCI-H1693 cell growth in a cell viability assay.
Experiment [59] concerns P30-OHK. Briefly: cells. The note with it: Homo sapiens.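 Also: growth inhibition of the P30-OHK cell line, read out with a cell viability assay.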
Description: SANGER: Inhibition of human P30-OHK cell growth in a cell viability assay.
The test system of experiment [60] is RS4-11. Briefly: cells. The note with it: Homo sapiens.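 Also: growth inhibition of RS4-11 cells, read out by a cell viability assay.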
Description: SANGER: Inhibition of human RS4-11 cell growth in a cell viability assay.
For experiment [61], the system named is SK-LU-1. In words: cells. The note with it: Homo sapiens.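 Also: cell viability assay measuring growth inhibition of human SK-LU-1 cells.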
Description: SANGER: Inhibition of human SK-LU-1 cell growth in a cell viability assay.
Experiment [62] has as its system NY. Briefly: cells. The note with it: Homo sapiens.
Description: SANGER: Inhibition of human NY cell growth in a cell viability assay.
Experiment [63] has as its system 8305C. Briefly: cells. The note with it: Homo sapiens.
Description: SANGER: Inhibition of human 8305C cell growth in a cell viability assay.
For experiment [64], the system named is OVCAR-8. Briefly: cells. The note with it: Homo sapiens.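 Also: growth inhibition of human OVCAR-8 cells, read out by a cell viability assay.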
Description: SANGER: Inhibition of human OVCAR-8 cell growth in a cell viability assay.
Experiment [65] relates to JAR. In words: cells. The note with it: Homo sapiens.
Description: SANGER: Inhibition of human JAR cell growth in a cell viability assay.
Experiment [66] has as its system SK-N-FI. Briefly: cells. The note with it: Homo sapiens.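 Also: cell viability assay measuring growth inhibition of human SK-N-FI cells.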
Description: SANGER: Inhibition of human SK-N-FI cell growth in a cell viability assay.
Experiment [67] concerns SNU1. In words: cells. The note with it: Homo sapiens.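 Also: growth inhibition of human NCI-SNU-1 cells, measured with a cell viability assay.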
Description: SANGER: Inhibition of human NCI-SNU-1 cell growth in a cell viability assay.
Experiment [68] has as its system C8166. In words: cells. The note with it: Homo sapiens.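 Also: growth inhibition of human C8166 cells measured by a cell viability assay.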
Description: SANGER: Inhibition of human C8166 cell growth in a cell viability assay.
Experiment [69] has as its system NCI-H292. In words: cells. The note with it: Homo sapiens.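 Also: growth inhibition of NCI-H292 cells, read out with a cell viability assay.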
Description: SANGER: Inhibition of human NCI-H292 cell growth in a cell viability assay.
Experiment [70] relates to MDA-MB-453. Briefly: cells. The note with it: Homo sapiens.
Description: SANGER: Inhibition of human MDA-MB-453 cell growth in a cell viability assay.
For experiment [71], the system named is NCI-H23. Briefly: cells. The note with it: Homo sapiens.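 Also: cell viability assay measuring growth inhibition of NCI-H23 cells.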
Description: SANGER: Inhibition of human NCI-H23 cell growth in a cell viability assay.
Experiment [72] relates to YAPC. In words: cells. The note with it: Homo sapiens.
Description: SANGER: Inhibition of human YAPC cell growth in a cell viability assay.
The subject of experiment [73] is SNU-449. Briefly: cells. The note with it: Homo sapiens.
Description: SANGER: Inhibition of human SNU-449 cell growth in a cell viability assay.
Experiment [74] relates to SBC-1. In words: cells. The note with it: Homo sapiens.
Description: SANGER: Inhibition of human SBC-1 cell growth in a cell viability assay.
For experiment [75], the system named is SK-N-AS. Briefly: cells. The note with it: Homo sapiens.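 Also: growth inhibition of human SK-N-AS cells, measured with a cell viability assay.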
Description: SANGER: Inhibition of human SK-N-AS cell growth in a cell viability assay.
The subject of experiment [76] is Huh-7. Briefly: cells. The note with it: Homo sapiens.
Description: SANGER: Inhibition of human HuH-7 cell growth in a cell viability assay.
Experiment [77] relates to NOMO-1. In words: cells. The note with it: Homo sapiens.
Description: SANGER: Inhibition of human NOMO-1 cell growth in a cell viability assay.
The test system of experiment [78] is COR-L88. Briefly: cells. The note with it: Homo sapiens.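 Also: growth inhibition of COR-L88 cells, read out with a cell viability assay.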
Description: SANGER: Inhibition of human COR-L88 cell growth in a cell viability assay.
The test system of experiment [79] is OS-RC-2. In words: cells. The note with it: Homo sapiens.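 Also: growth inhibition of human OS-RC-2 cells, measured by a cell viability assay.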
Description: SANGER: Inhibition of human OS-RC-2 cell growth in a cell viability assay.
Experiment [80] concerns TE-8. In words: cells. The note with it: Homo sapiens.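 Also: growth inhibition of TE-8 cells, measured with a cell viability readout.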
Description: SANGER: Inhibition of human TE-8 cell growth in a cell viability assay.
Experiment [81] deals with A673. In words: cells. The note with it: Homo sapiens.
Description: SANGER: Inhibition of human A673 cell growth in a cell viability assay.
In experiment [82] the test system is CAL-39. Briefly: cells. The note with it: Homo sapiens.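 Also: cell viability assay measuring growth inhibition of CAL-39 cells.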
Description: SANGER: Inhibition of human CAL-39 cell growth in a cell viability assay.
The test system of experiment [83] is CaR-1. In words: cells. The note with it: Homo sapiens.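 Also: growth inhibition of human CaR-1 cancer cells, read out with a cell viability assay.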
Description: SANGER: Inhibition of human CaR-1 cell growth in a cell viability assay.
In experiment [84] the test system is H-EMC-SS. Briefly: cells. The note with it: Homo sapiens.
Description: SANGER: Inhibition of human H-EMC-SS cell growth in a cell viability assay.
Experiment [85] has as its system ATN-1. In words: cells. The note with it: Homo sapiens.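 Also: growth inhibition of human ATN-1 cells, read out with a cell viability assay.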
Description: SANGER: Inhibition of human ATN-1 cell growth in a cell viability assay.
Experiment [86] relates to DSH1. Briefly: cells. The note with it: Homo sapiens.
Description: SANGER: Inhibition of human DSH1 cell growth in a cell viability assay.
Experiment [87] concerns HTC-C3. In words: cells. The note with it: Homo sapiens.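 Also: inhibition of cell growth, read out with a cell viability assay.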
Description: SANGER: Inhibition of human HTC-C3 cell growth in a cell viability assay.
In experiment [88] the test system is HEL. In words: cells. The note with it: Homo sapiens.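 Also: growth inhibition of HEL cells, read out with a cell viability assay.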
Description: SANGER: Inhibition of human HEL cell growth in a cell viability assay.
The subject of experiment [89] is GI-1. Briefly: cells. The note with it: Homo sapiens.
Description: SANGER: Inhibition of human GI-1 cell growth in a cell viability assay.
For experiment [90], the system named is MOLT-13. Briefly: cells. The note with it: Homo sapiens.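 Also: IC50 for suppression of MOLT-13 cell growth, read out with a cell viability assay.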
Description: SANGER: Inhibition of human MOLT-13 cell growth in a cell viability assay.
The test system of experiment [91] is NCI-H1666. In words: cells. The note with it: Homo sapiens.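 Also: growth inhibition of the cell line, read out with a cell viability assay.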
Description: SANGER: Inhibition of human NCI-H1666 cell growth in a cell viability assay.
The subject of experiment [92] is TE-6. Briefly: cells. The note with it: Homo sapiens.
Description: SANGER: Inhibition of human TE-6 cell growth in a cell viability assay.
In experiment [93] the test system is GCT. In words: cells. The note with it: Homo sapiens.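 Also: GCT cell line proliferation inhibition, read out with a cell viability assay.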
Description: SANGER: Inhibition of human GCT cell growth in a cell viability assay.

In general, IC50 refers to the concentration at which inhibition is half-maximal. A low value points to higher potency. In the case of `NC(=O)[C@@H](CCC(F)(F)F)N(Cc1ccc(-c2ncon2)cc1F)S(=O)(=O)c1ccc(Cl)cc1`, the values for the IC50 in experiment [1], in [2] and in experiment [3] were 0.322 µM, 0.426 µM and 1.05 µM, respectively.
`CNC(=O)c1ccccc1Sc1ccc2c(/C=C/c3ccccn3)n[nH]c2c1` [AXITINIB]: the IC50 was 1.39 µM in experiment [4]; over 2 µM in experiment [5]; 1.1 µM in experiment [6]; 1.01 µM in experiment [7]; over 2 µM in experiment [8]; over 2 µM in experiment [9]. Also, the 50% inhibitory concentration (IC50) is 0.424 µM in experiment [10]; over 2 µM in [11]; 1.11 µM in [12]; over 2 µM in experiment [13]; 1.41 µM in experiment [14]; over 2 µM in experiment [15]. The IC50 in experiment [16] is 1.11 µM; in [17] it was 0.168 µM; in [18], over 2 µM; in experiment [19], 0.421 µM.
On to `CC[C@@H]1C(=O)N(C)c2cnc(Nc3ccc(C(=O)NC4CCN(C)CC4)cc3OC)nc2N1C1CCCC1` [BI-2536], for which the IC50 in experiment [20] worked out at 0.0882 µM; in [21], 0.226 µM; in [22], 0.0177 µM; in [23], 0.12 µM.
As for `O=C(CCCCCCC(=O)Nc1ccccc1)NO` [VORINOSTAT], the IC50 in [24] is 2.15 µM; in experiment [25], 0.833 µM; in experiment [26], 4.86 µM; in experiment [27] it was 2.13 µM; in [28], 3.55 µM; in [29] it was over 10 µM. For the same molecule, the concentration for half-maximal inhibition (IC50) in experiment [30] was 3.55 µM; in experiment [31], 1.85 µM; in experiment [32] it was 2.17 µM; in experiment [33], over 10 µM; in experiment [34], 1.02 µM; in experiment [35], 7.73 µM. For the same molecule, the IC50 in [36] amounted to 2.32 µM; in experiment [37] it was 1.69 µM; in experiment [38], 2.15 µM; in experiment [39], 2.18 µM; in [40], 4.88 µM; in experiment [41] it was 0.809 µM. Moreover, the half-inhibitory concentration (IC50) in experiment [42] turned out to be 7.6 µM; in [43] it was 2.23 µM; in experiment [44], 0.823 µM; in experiment [45] it was 0.791 µM; in experiment [46] it was 0.174 µM; in experiment [47], 1.89 µM. Further, the IC50 in experiment [48] is 2.9 µM; in experiment [49], over 10 µM; in [50], 1.65 µM; in [51], 1.03 µM; in experiment [52], 2.29 µM; in [53] it was 1.88 µM. In addition, the IC50 in experiment [54] is over 10 µM; in experiment [55] it was 4.88 µM; in experiment [56] it was 0.401 µM; in [57], 2.17 µM; in experiment [58], over 10 µM; in [59] it was 0.836 µM. The IC50 was 0.832 µM in [60]; over 10 µM in [61]; over 10 µM in experiment [62]; 2.87 µM in experiment [63]; 1.54 µM in experiment [64]; 2.32 µM in [65]. In addition, the 50% inhibitory concentration (IC50) in [66] was determined as 4.94 µM; in experiment [67], 1.02 µM; in experiment [68], 2.21 µM; in [69] it was 2.87 µM; in experiment [70] it was 2.24 µM; in experiment [71], 1.55 µM. In addition, the IC50 in experiment [72] is over 10 µM; in [73] it was 2.89 µM; in experiment [74], 0.794 µM; in experiment [75] it was 0.988 µM; in experiment [76], 2.31 µM; in experiment [77] it was 2.19 µM. The half-inhibitory concentration (IC50) in experiment [78] is 1.56 µM; in [79], 1.87 µM; in experiment [80], 2.16 µM; in experiment [81], 2.26 µM; in [82], 2.24 µM; in experiment [14], 0.839 µM. Also, the IC50 in [83] was 2.86 µM; in experiment [84], over 10 µM; in [85], 0.74 µM; in experiment [16], 1.55 µM; in experiment [86], 2.16 µM; in experiment [87], 2.27 µM. The half-maximal inhibitory concentration (IC50) in experiment [88] worked out at 0.806 µM; in experiment [89], 2.31 µM; in experiment [90], 0.739 µM; in experiment [91], 2.28 µM; in [92] it was 4.94 µM; in experiment [93], 2.18 µM.
